Test results taken from patent US20240342156A1, “METHODS FOR TREATING PAIN” (Xenon Pharmaceuticals Inc., priority 2019, published 2024).
Like-named read-outs stand apart in the source and are kept apart here.

Experiments:
[1] = test system: CD1 mice (acetic acid induced writhing); experiment: Acetic acid writhing (AAW) mouse model of visceral/inflammatory pain; type: in vivo; settings: for EC50: Mus musculus, PK/PD correlation; for number of nociceptive events: CD1 mice, 0.4% acetic acid i.p.
Procedure: Objective: The acetic acid test was performed to assess the potential efficacy of Compound A in the acetic acid writhing (AAW) model of inflammatory pain. The AAW test was performed as described previously ([…] Bi et al., “Visceral hyperalgesia induced by forebrain-specific suppression of native Kv7/KCNQ/M-current in mice.” Mol. Pain 2011, 7:84; Gabriela F. Pavao-de-Souza et al., “Acetic acid- and phenyl-p-benzoquinone-induced overt pain-like behavior depends on spinal activation of MAP kinases, PI3K and microglia in mice.” Pharmacol. Biochem. Behav. 101 (2012) 320-328; […] Lett. 413 (2007) 159-162; Mosad A. Ghareeb et al., “HPLC-ESI-MS/MS Profiling of Polyphenolics of a Leaf Extract from Alpinia zerumbet (Zingiberaceae) and Its Anti-Inflammatory, Anti-Nociceptive, and Antipyretic Activities In Vivo.” Molecules 23 (2018) 3238; and […] et al., “Analgesic Activity of Acid-Sensing Ion Channel 3 (ASIC3) Inhibitors: Sea Anemones Peptides Ugr9-1 and APETx2 versus Low Molecular Weight Compounds.” Mar. Drugs 16 (2018), 500). Study Design: Briefly, acetic acid was injected intraperitoneally at 0.4% concentration in 6-7 week old CD1 mice. After the injection of acetic acid, animals were placed in a chamber and their subsequent writhing behavior was video recorded. A writhe is defined as contraction of abdominal muscles accompanied by elongation of the body and extension of hind limbs or rotation of the trunk. […] were counted between 5-15 min after the injection of acetic acid. Selection of Acetic Acid Dose: Based on the concentration response (0.2-0.8%) of acetic acid in CD1 mice, EC75 concentration (0.4%) was selected to produce optimal writhing response. Diclofenac was used as positive control in the acetic acid model.

[2] = Crossover study with pharmacokinetic analysis, single oral dose in healthy male subjects; type: in vivo, human; settings: for concentration at 6 days: oral, subjects who received placebo in Period 2
Excerpt: The pharmacokinetics (PK), safety, and tolerability of single doses of Compound A in healthy right-handed male human subjects were investigated in a randomized, double-blind, placebo-controlled, transcranial magnetic stimulation (TMS) crossover study.
An objective of the study was to evaluate the safety, tolerability, and pharmacokinetics of single doses of Compound A in healthy male subjects.
Twenty healthy right-handed male subjects were enrolled and randomized in a blinded fashion to receive a single oral dose of 20 mg Compound A or placebo (1:1 randomization ratio) on Day 1, then were crossed over to receive a single dose of the other treatment on Day 7.
Subjects were screened within 27 days prior to entering the study on Day 1. For Period 1, subjects were admitted to the study unit and dosed on Day 1, and discharged on Day 2. For Period 2, following a washout of 6 days, the same subjects were again admitted to the study unit and dosed on Day 7, and discharged on Day 8. All subjects returned to the clinical unit for an outpatient visit on Day 14, and received a follow-up telephone call on Day 37.
Subjects were dosed in a fed state, but the timing of dosing relative to meals was changed during the study, and varied between a high fat or standard meal eaten either 2 h or 30 minutes prior to dosing, and a high fat or standard meal eaten 1 h or 2.5 h after dosing.
The PK parameters for this study were summarized in two ways. Firstly, PK parameters were calculated where possible using the PK samples collected during each 24 h sampling period for Period 1 and Period 2 separately. Secondly, PK parameters were determined using samples beyond the 24 h sampling period (i.e., from Day 7/8 and/or Day 14). For subjects who received Compound A in the first period, PK samples taken prior to placebo treatment provided additional PK timepoints at >24 h. For subjects who received Compound A in the second period, there was no >24 h PK timepoint until a Day 14 PK sample was added. […] The full PK profile data set consists of the 16 subjects for whom PK samples were taken at >24 h post-dose. For discussion of the PK parameters below, the full PK profile data set was generally used, because it allowed more accurate estimation of PK parameters.
Initially, subjects were dosed 2 hours after a high fat meal with a relatively high fat lunch provided 1 hour after dosing. After blinded review of the PK profiles in the initial 8 subjects, the fat content of the lunch was reduced in an attempt to reduce the time to Tmax. In addition, the timing of the meal relative to dose was changed from 2 hours prior, to 30 minutes prior to dose and subsequently the fat content of the breakfast was reduced. The timing and type of meal for each subject is specified in Table 8. […] As such the PK data is presented without categorization according to meal content, or relative timing of the meal.

[3] = 20 mg single oral dose, fed, Full PK Profile (N = 16)
[4] = 20 mg single oral dose, fed, Overall (N = 20)
[5] = 20 mg single oral dose, fed, Period 1 (N = 10)
[6] = 20 mg single oral dose, fed, Period 2 (N = 10)
[7] = 20 mg single oral dose, full PK data set

## Cc1cc(N2CCc3cc(F)ccc3C2)cc(C)c1NC(=O)CC(C)(C)C [Compound A, N-[4-(6-fluoro-3,4-dihydro-TH-isoquinolin-2-yl)-2,6-dimethylphenyl]-3,3-dimethylbutanamide]
[1]; read-out: EC50 (effective concentration to give a 50% reduction in nociceptive events), concentration in brain
  EC50: 400 nM
[1]; read-out: EC50 (effective concentration to give a 50% reduction in nociceptive events), concentration in plasma
  EC50: 250 nM
[1]; Study 1, vehicle, 1, 3 and 10 mg/kg
  number of nociceptive events: dose-responsive decrease
[1]; Study 2, 10 mg/kg
  number of nociceptive events: decrease
[2]; [3]
  Clast (ng/mL), Mean ± SD: 4.52 ± 1.82 ng/mL
  Clast (ng/mL), Range: 1.33 to 7.67 ng/mL
  Tlast (h), Mean ± SD: 235 ± 81.5 h
  Tlast (h), Range: 142 to 360 h
[2]; [4]
  Clast (ng/mL), Mean ± SD: 16.4 ± 4.69 ng/mL
  Clast (ng/mL), Range: 7.1 to 27.8 ng/mL
  Tlast (h), Mean ± SD: 23.8 ± 0.299 h
  Tlast (h), Range: 23.1 to 24.3 h
  Tmax (h), Median: 7.83 h
  Tmax (h), Range: 1.92 to 12 h
[2]; [5]
  Clast (ng/mL), Mean ± SD: 16.4 ± 5.61 ng/mL
  Clast (ng/mL), Range: 10.1 to 27.8 ng/mL
  Tlast (h), Mean ± SD: 23.8 ± 0.375 h
  Tlast (h), Range: 23.1 to 24.3 h
[2]; [6]
  Clast (ng/mL), Mean ± SD: 16.4 ± 3.87 ng/mL
  Clast (ng/mL), Range: 7.1 to 21.3 ng/mL
  Tlast (h), Mean ± SD: 23.8 ± 0.213 h
  Tlast (h), Range: 23.5 to 24.1 h
[2]; [7]
  extrapolated area (% AUCextrap), median: 19.9%
  extrapolated area (% AUCextrap), range: 10.6-40.5%
[2]; male, human, plasma, 20 mg, read-out: Compound A levels after washout between periods, mean
  concentration at 6 days: 3.1 ng/mL
[2]; male, human, plasma, 20 mg, read-out: Compound A levels after washout between periods, range
  concentration at 6 days: 1.3 to 6.8 ng/mL
[2]; male, human, plasma, po, 20 mg, 2 h timepoint, 20 mg single oral dose, full PK profile, read-out: mean SD plasma concentration
  concentration at 2 h: 15.9 ± 21.4 ng/mL
[2]; male, human, plasma, po, 20 mg, 4 h timepoint, 20 mg single oral dose, full PK profile, read-out: mean SD plasma concentration
  concentration at 4 h: 30.2 ± 21.1 ng/mL
[2]; male, human, plasma, po, 20 mg, 6 h timepoint, 20 mg single oral dose, full PK profile, read-out: mean SD plasma concentration
  concentration at 6 h: 42.1 ± 19.1 ng/mL
[2]; male, human, plasma, 20 mg single oral dose, fed, Full PK Profile Data Set (N = 16), read-out: AUCinf (ng*h/mL), Range
  AUC(0-inf): 1920 to 7390 ng·h/mL
[2]; male, human, plasma, 20 mg single oral dose, fed, Full PK Profile Data Set (N = 16), read-out: AUClast (ng*h/mL), Range
  AUC(0-t): 1580 to 4400 ng·h/mL
[2]; male, human, plasma, 20 mg single oral dose, fed, Full PK Profile Data Set (N = 16), read-out: CL/F normalized (mL/h/kg), Range
  CL/F: 40.3 to 136 mL/h/kg
[2]; male, human, plasma, 20 mg single oral dose, fed, Full PK Profile Data Set (N = 16), read-out: MRTinf (h), Range
  MRT inf: 33 to 304 h
[2]; male, human, plasma, 20 mg single oral dose, fed, Full PK Profile Data Set (N = 16), read-out: MRTlast (h), Range
  MRT last: 48.2 to 122 h
[2]; male, human, plasma, 20 mg single oral dose, fed, Full PK Profile Data Set (N = 16), read-out: Vz/F normalized (L/kg), Range
  Vd/F: 6.4 to 33.8 L/kg
[2]; male, human, plasma, 20 mg single oral dose, fed, Overall (N = 20), read-out: Tmax (h), Median
  Tmax: ~8 h
